Laboratory results as given in patent US7217704B2, “LPA receptor agonists and antagonists and methods of use” (The University of Tennessee Research Foundation, priority 2003, dated 2007).
pEC50, pIC50, pKi: −log10 of the molar value. “Also recorded” adds a separate entry of the source. Read-outs that look alike come from different tables or passages of the source.

How the values were obtained:
LPA1 [1] = target: T1, LPA1 (Homo sapiens, UniProt Q92633); experiment: Ca2+ transients (agonism / inhibition of LPA response) in RH7777 cells stably expressing LPA1; type: cell-based; conditions: RH7777 cells expressing LPA1; for pEC50: induction of Ca2+ transients, read-out: LPA1 EC50; for pIC50: read-out: LPA1 IC50
T1 construct: expressed in transfected cells
T1 sequence (Q92633 whole entry): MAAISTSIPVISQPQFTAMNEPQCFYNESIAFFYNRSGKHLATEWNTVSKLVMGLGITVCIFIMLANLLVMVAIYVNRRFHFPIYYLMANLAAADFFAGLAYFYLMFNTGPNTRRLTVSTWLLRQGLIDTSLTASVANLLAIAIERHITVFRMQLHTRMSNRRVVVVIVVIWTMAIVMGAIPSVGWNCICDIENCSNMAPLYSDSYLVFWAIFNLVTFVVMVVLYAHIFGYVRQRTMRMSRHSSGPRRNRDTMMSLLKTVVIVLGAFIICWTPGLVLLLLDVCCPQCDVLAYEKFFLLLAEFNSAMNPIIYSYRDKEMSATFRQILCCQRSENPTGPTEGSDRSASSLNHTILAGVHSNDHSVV
Procedure: (§1) The culture medium (DMEM containing 10% FBS) was then replaced with modified Krebs solution (120 mM NaCl, 5 mM KCl, 0.62 mM MgSO4, 1.8 mM CaCl2, 10 mM HEPES, 6 mM glucose, pH 7.4) and the cells were serum starved for 6–8 hours (12 h for PC-3 cells). Cells were loaded with Fura-2 AM for 35 minutes in modified Krebs medium. The Fura-2 was removed before loading the plate in the FlexStation instrument by replacing the medium once again with 100 μl modified Krebs medium/well. Plates were incubated for 4 minutes in the instrument to allow for warming to 37° C. Changes in intracellular Ca^2+ concentration were monitored by measuring the ratio of emitted light intensity at 520 nm in response to excitation by 340 nm and 380 nm wavelength lights, respectively. Each well was monitored for 80–120 seconds. […] Time courses were recorded using the SoftMax Pro software (Molecular Devices, Sunnyvale, Calif.). Ca^2+ transients were quantified automatically by calculating the difference between maximum and baseline ratio values for each well.
(§2) Each FAP analog was tested for the ability to induce Ca^2+ transients in RH7777 cells transfected with LPA1-3 receptors (agonism), as well as the ability to inhibit LPAinduced Ca^2+ transients in the same cells (antagonism) (Table 3).

LPA2 [2] = target: T2, LPA2 (Homo sapiens, UniProt Q9HBW0); experiment: Ca2+ transients (agonism / inhibition of LPA response) in RH7777 cells stably expressing LPA2; type: cell-based; conditions: RH7777 cells expressing LPA2; for pEC50: induction of Ca2+ transients, read-out: LPA2 EC50; for pIC50: inhibition of LPA-induced Ca2+ transients, read-out: LPA2 IC50
T2 construct: expressed in transfected cells
T2 sequence (Q9HBW0 whole entry): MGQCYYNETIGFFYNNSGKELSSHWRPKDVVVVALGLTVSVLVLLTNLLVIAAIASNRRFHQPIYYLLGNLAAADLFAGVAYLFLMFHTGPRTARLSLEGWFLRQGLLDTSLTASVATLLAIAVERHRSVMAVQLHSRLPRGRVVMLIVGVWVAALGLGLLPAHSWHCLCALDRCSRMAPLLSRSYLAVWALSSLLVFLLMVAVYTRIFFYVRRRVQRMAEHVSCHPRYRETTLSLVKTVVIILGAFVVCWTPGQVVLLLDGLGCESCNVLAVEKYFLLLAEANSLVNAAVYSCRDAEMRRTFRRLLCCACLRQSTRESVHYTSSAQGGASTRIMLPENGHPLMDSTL
Procedure: as §1, §2

LPA3 [3] = target: T3, LPA3 (Homo sapiens, UniProt Q9UBY5); experiment: Ca2+ transients (agonism / inhibition of LPA response) in RH7777 cells stably expressing LPA3; type: cell-based; conditions: RH7777 cells expressing LPA3; for pEC50: induction of Ca2+ transients, read-out: LPA3 EC50; for pKi / pIC50: inhibition of LPA-induced Ca2+ transients; for pKi: read-out: LPA3 (Ki); for pIC50: read-out: LPA3 IC50
T3 construct: expressed in transfected cells
T3 sequence (Q9UBY5 1-353): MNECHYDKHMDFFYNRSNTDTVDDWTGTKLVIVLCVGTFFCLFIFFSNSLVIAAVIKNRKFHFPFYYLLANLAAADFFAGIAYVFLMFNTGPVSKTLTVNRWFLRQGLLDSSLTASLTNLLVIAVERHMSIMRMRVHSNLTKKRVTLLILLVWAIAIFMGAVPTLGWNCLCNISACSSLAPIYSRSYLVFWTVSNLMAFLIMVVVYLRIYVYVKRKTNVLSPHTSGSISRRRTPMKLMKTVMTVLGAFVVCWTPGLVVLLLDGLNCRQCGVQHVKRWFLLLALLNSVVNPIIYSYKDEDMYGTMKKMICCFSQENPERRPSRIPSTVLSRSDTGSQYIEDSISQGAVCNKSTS
Procedure: as §1, §2

PC-3 cells = experiment: Ca2+ transients in PC-3 cells endogenously expressing LPA1-3; type: cell-based, human; conditions: inhibition of LPA-induced Ca2+ transients, PC-3 cells; for pIC50: read-out: PC-3 IC50
Procedure: as §1
We tested the FAP analogs in PC-3 cells, which unlike the transfected RH7777 cells endogenously express LPA1-3 receptors.

LPA1 [4] = target: T1, LPA1; conditions: GTPγS loading assay, HEK293T; read-out: reported Ki at LPA1; cited from earlier work
LPA2 [5] = target: T2, LPA2; conditions: GTPγS loading assay, HEK293T; read-out: reported Ki at LPA2; cited from earlier work
LPA3 [6] = target: T3, LPA3; conditions: GTPγS loading assay, HEK293T; read-out: reported Ki at LPA3; cited from earlier work
PPARγ = target: T4, PPARγ (Homo sapiens, UniProt P37231); experiment: PPARγ activation in CV1 cells, PPRE-Acox-Rluc reporter gene assay; conditions: 10 μM test compound, 20 h
T4 sequence (P37231 1-505): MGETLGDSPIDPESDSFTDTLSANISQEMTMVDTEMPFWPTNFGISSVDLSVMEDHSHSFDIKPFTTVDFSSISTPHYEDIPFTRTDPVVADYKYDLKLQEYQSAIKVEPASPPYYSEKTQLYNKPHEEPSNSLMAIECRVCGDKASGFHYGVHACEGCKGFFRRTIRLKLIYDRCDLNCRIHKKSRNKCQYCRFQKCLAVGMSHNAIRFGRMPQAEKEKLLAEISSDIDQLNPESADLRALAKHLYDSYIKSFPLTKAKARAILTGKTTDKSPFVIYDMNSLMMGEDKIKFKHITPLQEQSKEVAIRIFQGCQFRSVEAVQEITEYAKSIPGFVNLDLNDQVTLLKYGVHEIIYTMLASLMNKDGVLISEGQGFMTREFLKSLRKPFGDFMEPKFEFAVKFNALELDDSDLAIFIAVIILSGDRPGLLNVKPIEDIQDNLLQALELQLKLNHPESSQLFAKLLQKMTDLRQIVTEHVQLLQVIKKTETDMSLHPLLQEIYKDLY

LPA1 [7] = target: T1, LPA1; conditions: RH7777 cells expressing LPA1; previously reported in Virag et al. (2003); cited from earlier work
LPA2 [8] = target: T2, LPA2; conditions: RH7777 cells expressing LPA2; previously reported in Virag et al. (2003); cited from earlier work
LPA3 [9] = target: T3, LPA3; conditions: RH7777 cells expressing LPA3; previously reported in Virag et al. (2003); cited from earlier work
LPA1 [10] = target: T1, LPA1; conditions: original assay, literature; read-out: reported Ki at LPA1; cited from earlier work
LPA3 [11] = target: T3, LPA3; conditions: original assay, literature; read-out: reported Ki at LPA3; cited from earlier work
IEC-6 cells = experiment: Camptothecin-induced DNA fragmentation (apoptosis) in IEC-6 cells, ELISA; type: cell-based; conditions: Camptothecin 20 μM, LPA and FAP12 at 10 μM
Procedure: The experimental procedure utilized was substantially the same as that reported in Deng et al. (2002) and Deng et al., (2003).
Basically, IEC-6 cells were grown in DMEM medium supplemented with 5% fetal bovine serum, insulin (10 μg/ml), gentamycin sulfate (50 μg/ml), and incubated at 37° C. in a humidified 90% air–10% CO2 atmosphere. Medium was changed every other day. Sub-confluent cells were washed twice and replaced by DMEM without serum the night before experiments.
Damage and IEC-6 cell apoptosis was induced via either γ-irradiation or chemotherapy. 20 Gy single dose of [^137Cs] source γ-irradiation was used in all experiments. […] In some experiments, LPA was added at different times before or after irradiation. Treatment with 20 μM camptothecin of IEC-6 cells induces DNA fragmentation as measured by the ELISA assay at 16 h after treatment. DNA fragmentation was quantified using the Cell Death Detection ELISA kit from Boehringer (Indianapolis, Ind.) according to the instructions of the manufacturer. Samples were run in triplicate. A duplicate of the sample was used to quantify protein concentration using the BCA kit from Pierce (Rockford, Ill.). DNA fragmentation was expressed as absorbance units per μg protein per minute.

[12] = inhibition of LPA-induced Ca2+ transients

pEC50 (LPA1 [1])	pIC50 (LPA1 [1]; [12])	pEC50 (LPA2 [2])	pIC50 (LPA2 [2])	pEC50 (LPA3 [3])	pKi (LPA3 [3])	pIC50 (LPA3 [3])	PPARγ activation (PPRE-Acox-Rluc reporter) in words (PPARγ)	Compound	pIC50 (PC-3 cells)	pKi (LPA1 [4])	pKi (LPA3 [6])	further results
< 4.52	6.12	< 4.52	< 4.52	< 4.52	6.83	6.52	can activate PPRE-Acox-Rluc reporter	Cc1noc(-c2ccc(CSCCC(=O)O)cc2)c1NC(=O)OC(C)c1ccccc1Cl (stereo not shown) [Ki16425, reference compound]	5.47	6.60	6.44	pKi (LPA1 [1]; [12]): 6.37; pKi (PC-3 cells): 5.76; pKi (LPA2 [5]): 5.25
–	–	–	–	–	–	–	–	CCCCCCCCCCCCCCOP(=O)(O)O [Compound 2c]	–	–	–	pEC50 (LPA1 [7]): < 4.52; pEC50 (LPA2 [8]): < 4.52; pIC50 (LPA2 [8]): < 4.52; pEC50 (LPA3 [9]): < 4.52
< 4.52	5.26	< 4.52	< 4.52	< 4.52	6.69	6.34	can activate PPRE-Acox-Rluc reporter	CCCCCCCC(=O)OC[C@H](COP(=O)(O)OP(=O)(O)O)OC(=O)CCCCCCC [DGPP, reference compound]	–	–	–	pKi (LPA1 [1]): 5.37; pKi (LPA1 [10]): 5.18; pKi (LPA3 [11]): 6.97
–	–	–	–	–	–	–	–	lysophosphatidic acid [LPA]	–	–	–	inhibition of Camptothecin-induced DNA fragmentation in words (IEC-6 cells): inhibited; also recorded: dose-dependently inhibit DNA fragmentation

Compound	pEC50 (LPA1 [1])	pIC50 (LPA1 [1]; [12])	pEC50 (LPA2 [2])	pIC50 (LPA2 [2])	pEC50 (LPA3 [3])	pKi (LPA3 [3])	pIC50 (LPA3 [3])	PPARγ activation (PPRE-Acox-Rluc reporter) in words (PPARγ)	pIC50 (PC-3 cells)	pKi (LPA1 [4])	pKi (LPA3 [6])	further results
CCCCCCCC/C=C\CCCCCCCC(=O)N[C@@H](COP(=O)(O)O)Cc1ccc(OCc2ccccc2)cc1 [VPC12249, reference compound]	< 4.52	< 5.00	< 4.52	< 4.52	< 4.52	6.23	5.93	can activate PPRE-Acox-Rluc reporter; also recorded: exception	< 5.00	6.86	6.37	effect at LPA1 in words (LPA1 [1]; Ca2+ transients): weak inhibitor; effect at LPA2 in words (LPA2 [2]; Ca2+ transients): did not affect LPA signaling
